Reference: ChEMBL document CHEMBL1123562, “N-substituted oxopyrimidines and nucleosides: structure-activity relationship for hypnotic activity as central nervous system depressant” (J Med Chem, 1987)
“And” between values parts separate entries of the source, which are not always exact repeats. Identical values can stand only once.

How the values were obtained:
Mus musculus [1] = assay: Hypnotic activity expressed as ratio of number of animals slept and total number of animals tested was determined in ddN strain mice by the icv administration of 0.3 mmol/kg of the compound; 6/6; type: functional
Mus musculus [2] = assay: Hypnotic activity expressed as ratio of number of animals slept and total number of animals tested was determined in ddN strain mice by the icv administration of 0.5 mmol/kg of the compound; 4/4; type: functional
Mus musculus [3] = assay: Hypnotic activity expressed as sleeping time was determined in ddN strain mice by the icv administration of 3.0 uMol/mouse of the compound; type: functional
Mus musculus [4] = assay: Hypnotic activity expressed as sleeping time was determined in ddN strain mice by the icv administration of 1.0 uMol/mouse of the compound; type: functional
Mus musculus [5] = assay: Hypnotic activity expressed as sleeping time was determined in ddN strain mice by the icv administration of 2.0 uMol/mouse of the compound; type: functional
Mus musculus [6] = assay: Hypnotic activity in ddN strain mice by the iv administration of 0.5 mmol/kg; No activity.; type: functional, organism-based
Mus musculus [7] = assay: Hypnotic activity expressed as ratio of number of animals slept and total number of animals tested was determined in ddN strain mice by the icv administration of 0.1 mmol/kg of the compound; 8/8; type: functional
Mus musculus [8] = assay: Tested for PB (pentobarbital)-induced sleep effect expressed as percent control of sleeping time at a dosage (icv) of 2.0 uM concentration; type: functional
[9] = Partition coefficient is determined for the compound from its equilibrium concentrations in organic phase to that in aqueous buffer of pH 7.4; type: ADME; conditions: octanol/water
Mus musculus [10] = assay: Hypnotic activity expressed as sleeping time was determined in ddN strain mice by the iv administration of 0.1 mmol/kg of the compound; None indicates that the mouse could not fall into sleep; type: functional, organism-based
Mus musculus [11] = assay: Hypnotic activity expressed as sleeping time was determined in ddN strain mice by the iv administration of 0.3 mmol/kg of the compound; None indicates that the mouse could not fall into sleep; type: functional, organism-based
Mus musculus [12] = assay: Hypnotic activity expressed as sleeping time was determined in ddN strain mice by the icv administration of 2.0 uMol/mouse of the compound; None indicates that the mouse could not fall into sleep; type: functional, organism-based
Mus musculus [13] = assay: Hypnotic activity expressed as sleeping time was determined in ddN strain mice by the icv administration of 3.8 uMol/mouse of the compound; None indicates that the mouse could not fall into sleep; type: functional, organism-based
Mus musculus [14] = assay: Tested for PB (pentobarbital)-induced sleep effect expressed as percent control of sleeping time at a dosage (icv) of 3.8 uM concentration; type: functional
Mus musculus [15] = assay: Hypnotic activity expressed as sleeping time was determined in ddN strain mice by the iv administration of 0.3 mmol/kg of the compound; type: functional
Mus musculus [16] = assay: Hypnotic activity expressed as sleeping time was determined in ddN strain mice by the iv administration of 0.5 mmol/kg of the compound; type: functional
Mus musculus [17] = assay: Hypnotic activity expressed as ratio of number of animals slept and total number of animals tested was determined in ddN strain mice by the icv administration of 0.3 mmol/kg of the compound; 2/8; type: functional
Mus musculus [18] = assay: Hypnotic activity expressed as ratio of number of animals slept and total number of animals tested was determined in ddN strain mice by the icv administration of 0.5 mmol/kg of the compound; 5/8; type: functional
Mus musculus [19] = assay: Hypnotic activity expressed as sleeping time was determined in ddN strain mice by the icv administration of 1.0 uMol/mouse of the compound; None indicates that the mouse could not fall into sleep; type: functional, organism-based
Mus musculus [20] = assay: Hypnotic activity expressed as ratio of number of animals slept and total number of animals tested was determined in ddN strain mice by the icv administration of 0.1 mmol/kg of the compound; 0/8; type: functional
Mus musculus [21] = assay: Tested for PB (pentobarbital)-induced sleep effect expressed as percent control of sleeping time at a dosage (icv) of 2.4 uM concentration; type: functional
Mus musculus [22] = assay: Tested for PB (pentobarbital)-induced sleep effect expressed as percent control of sleeping time at a dosage (icv) of 1.0 uM concentration; type: functional
Mus musculus [23] = assay: Hypnotic activity expressed as ratio of number of animals slept and total number of animals tested was determined in ddN strain mice by the icv administration of 0.1 mmol/mouse of the compound; 0/8; type: functional
Mus musculus [24] = assay: Hypnotic activity expressed as ratio of number of animals slept and total number of animals tested was determined in ddN strain mice by the icv administration of 0.3 mmol/mouse of the compound; 7/8; type: functional
Mus musculus [25] = assay: Hypnotic activity expressed as ratio of number of animals slept and total number of animals tested was determined in ddN strain mice by the icv administration of 0.3 mmol/mouse of the compound; 8/8; type: functional
Mus musculus [26] = assay: Hypnotic activity expressed as sleeping time was determined in ddN strain mice by the icv administration of 3.8 uMol/mouse of the compound; type: functional
Mus musculus [27] = assay: Hypnotic activity expressed as sleeping time was determined in ddN strain mice by the icv administration of 0.1 mmol/mouse of the compound; None indicates that the mouse could not fall into sleep; type: functional, organism-based
Mus musculus [28] = assay: Hypnotic activity expressed as sleeping time was determined in ddN strain mice by the iv administration of 0.5 umol/kg of the compound; None indicates that the mouse could not fall into sleep; type: functional, organism-based
Mus musculus [29] = assay: Hypnotic activity expressed as sleeping time was determined in ddN strain mice by the icv administration of 12.0 uMol/mouse of the compound; type: functional

Cc1ccccc1Cn1c(=O)ccn(C2O[C@H](CO)[C@@H](O)[C@H]2O)c1=O (stereo partly drawn)
Activity (Mus musculus [1]): 6
Activity (Mus musculus [2]): 4
Sleeping time (Mus musculus [3]): 129 min
Sleeping time (Mus musculus [4]): 45 min
Sleeping time (Mus musculus [5]): 72 min and 70 min
Sleeping time (Mus musculus [6]): None
Activity (Mus musculus [7]): 8
Sleeping time (% of control) (Mus musculus [8]): 344%

O=c1[nH]c(=O)n(C2CCCO2)cc1F (stereo not drawn) [TEGAFUR]
Partition coefficient [9]: 0.35
Sleeping time (Mus musculus [10]): None
Sleeping time (Mus musculus [11]): None
Sleeping time (Mus musculus [12]): None
Sleeping time (Mus musculus [6]): None
Sleeping time (% of control) (Mus musculus [8]): 139%

CCn1c(=O)ccn(C2O[C@H](CO)[C@@H](O)[C@H]2O)c1=O (stereo partly drawn)
Sleeping time (Mus musculus [13]): None
Sleeping time (Mus musculus [6]): None
Control (Mus musculus [14]): 124%

COC[C@H]1O[C@@H](n2ccc(=O)n(Cc3ccccc3)c2=O)[C@H](OC)[C@@H]1OC
Partition coefficient [9]: 64.45
Sleeping time (Mus musculus [10]): None
Sleeping time (Mus musculus [15]): 6 min
Sleeping time (Mus musculus [5]): 6 min
Sleeping time (Mus musculus [16]): 29 min
Sleeping time (% of control) (Mus musculus [8]): 200%

CC(c1ccccc1)n1c(=O)ccn(C2O[C@H](CO)[C@@H](O)[C@H]2O)c1=O (stereo partly drawn)
Activity (Mus musculus [17]): 2
Activity (Mus musculus [18]): 5
Sleeping time (Mus musculus [3]): 27 min
Sleeping time (Mus musculus [19]): None
Sleeping time (Mus musculus [5]): 7 min
Sleeping time (Mus musculus [6]): None
Activity (Mus musculus [20]): 0
Sleeping time (% of control) (Mus musculus [8]): 231%
Control (Mus musculus [14]): 303%

Cc1cccc(Cn2c(=O)ccn(C3O[C@H](CO)[C@@H](O)[C@H]3O)c2=O)c1 (stereo partly drawn)
Sleeping time (Mus musculus [5]): 56 min
Sleeping time (Mus musculus [6]): None
Sleeping time (% of control) (Mus musculus [8]): 326%

CCCn1c(=O)ccn(C2O[C@H](CO)[C@@H](O)[C@H]2O)c1=O (stereo partly drawn)
Sleeping time (Mus musculus [13]): None
Sleeping time (Mus musculus [6]): None
Control (Mus musculus [14]): 134%

O=c1ccn(Cc2ccccc2)c(=O)[nH]1
Sleeping time (Mus musculus [12]): None
Sleeping time (Mus musculus [6]): None
Sleeping time (% of control) (Mus musculus [8]): 86%

CC(=O)OC[C@H]1O[C@@H](n2ccc(=O)[nH]c2=O)[C@H](OC(C)=O)[C@@H]1OC(C)=O [URIDINE TRIACETATE]
Sleeping time (Mus musculus [5]): 8 min
Sleeping time (Mus musculus [6]): None
Sleeping time (% of control) (Mus musculus [8]): 178%

O=c1c(F)cn(C2CCCO2)c(=O)n1Cc1ccccc1 (stereo not drawn)
Partition coefficient [9]: 23.94
Sleeping time (Mus musculus [10]): None
Sleeping time (Mus musculus [15]): 2 min
Sleeping time (Mus musculus [5]): 3 min
Sleeping time (Mus musculus [16]): 7 min
Sleeping time (% of control) (Mus musculus [8]): 262%

COC[C@H]1O[C@@H](n2ccc(=O)[nH]c2=O)[C@H](OC)[C@@H]1OC
Partition coefficient [9]: 2.16
Sleeping time (Mus musculus [10]): None
Sleeping time (Mus musculus [11]): None
Sleeping time (Mus musculus [12]): None
Sleeping time (Mus musculus [6]): None
Control (Mus musculus [8]): 144%

O=c1ccn(C2O[C@H](CO)[C@@H](O)[C@H]2O)c(=O)n1Cc1ccc(Cl)cc1 (stereo partly drawn)
Sleeping time (Mus musculus [5]): 20 min
Sleeping time (Mus musculus [6]): None
Control (Mus musculus [14]): 203%

O=c1ccn([C@@H]2O[C@H](CO)[C@@H](O)[C@H]2O)c(=O)[nH]1 [URIDINE]
Sleeping time (Mus musculus [13]): None
Sleeping time (Mus musculus [6]): None
Control (Mus musculus [21]): 135%
Control (Mus musculus [14]): 138%
Control (Mus musculus [22]): 93%

CC(C)=CCn1c(=O)ccn(C2O[C@H](CO)[C@@H](O)[C@H]2O)c1=O (stereo partly drawn)
Sleeping time (Mus musculus [13]): None
Sleeping time (Mus musculus [6]): None
Control (Mus musculus [14]): 228%

CC(=O)OC[C@H]1O[C@@H](n2ccc(=O)n(Cc3ccccc3)c2=O)[C@H](OC(C)=O)[C@@H]1OC(C)=O
Partition coefficient [9]: 32.73
Sleeping time (Mus musculus [10]): None
Sleeping time (Mus musculus [15]): 1 min
Sleeping time (Mus musculus [5]): 4 min
Sleeping time (Mus musculus [16]): 5 min
Sleeping time (% of control) (Mus musculus [8]): 186%

O=c1cc[nH]c(=O)[nH]1 [URACIL]
Sleeping time (Mus musculus [12]): None
Sleeping time (Mus musculus [6]): None
Control (Mus musculus [22]): 99%

O=c1ccn(C2O[C@H](CO)[C@@H](O)[C@H]2O)c(=O)n1Cc1ccccc1 (stereo partly drawn)
Partition coefficient [9]: 2.16
Activity (Mus musculus [23]): 0
Activity (Mus musculus [24]): 7
Activity (Mus musculus [25]): 8
Sleeping time (Mus musculus [3]): 106 min
Sleeping time (Mus musculus [26]): 153 min
Sleeping time (Mus musculus [10]): None
Sleeping time (Mus musculus [11]): None
Sleeping time (Mus musculus [5]): 36 min and 28 min
Sleeping time (Mus musculus [6]): None
Sleeping time (% of control) (Mus musculus [8]): 292%
Control (Mus musculus [14]): 404%
Control (Mus musculus [22]): 154%
Sleeping time (Mus musculus [27]): None

Cc1ccc(Cn2c(=O)ccn(C3O[C@H](CO)[C@@H](O)[C@H]3O)c2=O)cc1 (stereo partly drawn)
Sleeping time (Mus musculus [5]): 36 min
Sleeping time (Mus musculus [28]): None
Sleeping time (% of control) (Mus musculus [8]): 308%

Cn1c(=O)ccn(C2O[C@H](CO)[C@@H](O)[C@H]2O)c1=O (stereo partly drawn)
Sleeping time (Mus musculus [13]): None
Sleeping time (Mus musculus [6]): None
Control (Mus musculus [14]): 117%

O=c1ccn(Cc2ccccc2)c(=O)n1Cc1ccccc1
Sleeping time (Mus musculus [29]): 15 min
Sleeping time (Mus musculus [12]): None
Sleeping time (Mus musculus [16]): 17 min
Control (Mus musculus [14]): 112%

C=CCn1c(=O)ccn(C2O[C@H](CO)[C@@H](O)[C@H]2O)c1=O (stereo partly drawn)
Sleeping time (Mus musculus [13]): None
Sleeping time (Mus musculus [6]): None
Control (Mus musculus [14]): 173%
